Test results published in patent US20250313563A1, “GLYCOGEN SYNTHASE KINASE 3 INHIBITORS AND USES THEREOF” (The Broad Institute, Inc., priority 2022, published 2025).
Like-named read-outs stand apart in the source and are kept apart here.

Key:
[1] = biological target: GSK3α (GST-full length GSK3α) (Homo sapiens (Human), UniProt P49840); experiment: GSK3α TR-FRET kinase assay; assay type: biochemical
In short: (§1)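 IC50 came from the normalized 665/615 nm TR-FRET ratio plotted against log compound concentration. The Tb-labelled pSer641 antibody and streptavidin-d2 detected phosphorylation of biotinylated S645-primed glycogen synthase peptide (200 nM) by 1 nM full-length GST-kinase. ATP was 4 μM for α, 2 μM for β, or 1 mM.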

[2] = biological target: GSK3b (GST-full length GSK3b) (Homo sapiens (Human), UniProt P49841); experiment: GSK3b TR-FRET kinase assay; assay type: biochemical
GSK3b (GST-full length GSK3b), sequence (P49841 whole entry): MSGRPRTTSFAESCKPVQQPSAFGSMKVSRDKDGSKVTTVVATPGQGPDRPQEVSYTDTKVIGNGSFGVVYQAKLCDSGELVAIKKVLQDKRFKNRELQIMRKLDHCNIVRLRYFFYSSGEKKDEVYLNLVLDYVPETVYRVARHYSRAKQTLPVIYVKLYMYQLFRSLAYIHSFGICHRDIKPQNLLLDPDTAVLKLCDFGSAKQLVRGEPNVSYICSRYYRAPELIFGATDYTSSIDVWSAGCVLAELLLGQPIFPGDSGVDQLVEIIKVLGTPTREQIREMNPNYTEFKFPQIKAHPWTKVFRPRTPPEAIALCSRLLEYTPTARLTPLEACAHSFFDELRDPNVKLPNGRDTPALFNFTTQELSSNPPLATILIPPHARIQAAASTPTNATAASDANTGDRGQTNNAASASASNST
In short: as §1

[3] = 1 nM GSK3α, 4 μM ATP, 30 minute preincubation, geometric mean, read-out: GSK3-A TR-FRET BIOCHEMICAL (TR-FRET), GMean, IC50
[4] = 1 nM GSK3b, 2 μM ATP, 30 minute preincubation, geometric mean, read-out: GSK3-B TR-FRET BIOCHEMICAL (TR-FRET), GMean, IC50
[5] = 1 nM GSK3α, 4 μM ATP, 30 minute preincubation, Table 16, read-out: GSK3-A TR-FRET BIOCHEMICAL (TR-FRET), IC50
[6] = 1 nM GSK3b, 2 μM ATP, 30 minute preincubation, Table 16, read-out: GSK3-B TR-FRET BIOCHEMICAL (TR-FRET), IC50
[7] = read-out: GSK3-A (TR-FRET 1 mM ATP), GMean, IC50, 1 mM ATP, geometric mean
[8] = read-out: GSK3-B (TR-FRET 1 mM ATP), GMean, IC50, 1 mM ATP, geometric mean
[9] = 1 nM GSK3α, 4 μM ATP, 30 minute preincubation, read-out: GSK3-A TR-FRET BIOCHEMICAL (TR-FRET), IC50
[10] = 1 nM GSK3b, 2 μM ATP, 30 minute preincubation, read-out: GSK3-B TR-FRET BIOCHEMICAL (TR-FRET), IC50
[11] = 1 nM GSK3α, 4 μM ATP, 30 minute preincubation, Table 16, read-out: GSK3-A TR-FRET BIOCHEMICAL (TR-FRET)
[12] = 1 nM GSK3b, 2 μM ATP, 30 minute preincubation, Table 16, read-out: GSK3-B TR-FRET BIOCHEMICAL (TR-FRET)

GSK3α (GST-full length GSK3α), sequence (P49840 whole entry): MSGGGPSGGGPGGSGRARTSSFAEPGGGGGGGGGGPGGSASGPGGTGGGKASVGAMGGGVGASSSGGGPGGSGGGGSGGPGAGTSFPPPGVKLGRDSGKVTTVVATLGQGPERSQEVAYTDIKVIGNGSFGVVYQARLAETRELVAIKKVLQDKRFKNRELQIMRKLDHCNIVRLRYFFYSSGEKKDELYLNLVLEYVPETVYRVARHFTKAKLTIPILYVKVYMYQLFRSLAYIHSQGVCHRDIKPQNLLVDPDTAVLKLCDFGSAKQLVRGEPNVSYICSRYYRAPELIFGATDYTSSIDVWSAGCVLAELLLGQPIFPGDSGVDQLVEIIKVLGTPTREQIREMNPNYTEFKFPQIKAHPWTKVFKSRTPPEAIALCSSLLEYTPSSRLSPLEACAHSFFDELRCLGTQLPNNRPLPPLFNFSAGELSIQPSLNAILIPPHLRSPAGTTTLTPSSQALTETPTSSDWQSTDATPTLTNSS

IC50 [1, 3] | IC50 [2, 4] | SMILES | further results
> 5000 nM | > 5000 nM | CC[C@@]1(c2ccccc2)C2=C(C[C@](C)(COC)CC2=O)Nc2n[nH]cc21 [Compound 816874] | 
100 to 1000 nM | 1000 to 5000 nM | CC[C@@]1(c2ccccc2)C2=C(C[C@@](C)(COC)CC2=O)Nc2n[nH]cc21 [Compound 816875] | 
> 5000 nM | > 5000 nM | CC[C@]1(c2ccccc2)C2=C(C[C@@]3(CCCOC3)CC2=O)Nc2n[nH]cc21 [Compound 816876] | 
100 to 1000 nM | 1000 to 5000 nM | CC[C@@]1(c2ccccc2)C2=C(C[C@@]3(CCCOC3)CC2=O)Nc2n[nH]cc21 [Compound 816878] | 
100 to 1000 nM | 100 to 1000 nM | CC[C@@]1(c2ccccc2)C2=C(C[C@]3(CCCOC3)CC2=O)Nc2n[nH]cc21 [Compound 816879] | 
> 5000 nM | > 5000 nM | CC[C@@]1(c2ccccc2)C2=C(C[C@]3(CCOC3)CC2=O)Nc2n[nH]cc21 [Compound 816882] | 
100 to 1000 nM | 1000 to 5000 nM | CC[C@@]1(c2ccccc2)C2=C(C[C@@]3(CCOC3)CC2=O)Nc2n[nH]cc21 [Compound 816884] | 
1000 to 5000 nM | > 5000 nM | CCC1(c2cccc(CN3CCCCC3)c2)C2=C(CC(C)(C)CC2=O)Nc2n[nH]cc21 (centres unmarked) [Compound 819560] | 
≤ 100 nM | ≤ 100 nM | CCC1(c2cccc(C(F)F)c2)C2=C(CC(C)(C)CC2=O)Nc2n[nH]cc21 (centres unmarked) [Compound 819564] | 
> 5000 nM | > 5000 nM | CC[C@@]1(c2ccccc2)C2=C(C[C@@](C)(C(F)(F)F)CC2=O)Nc2n[nH]cc21 [Compound 819571] | 
> 5000 nM | > 5000 nM | CC[C@]1(c2ccccc2)C2=C(CC3(CCC3)CC2=O)Nc2n[nH]cc21 [Compound 819572] | 
100 to 1000 nM | ≤ 100 nM | CCC1(c2cccc(N3CCCC3)c2)C2=C(CC(C)(C)CC2=O)Nc2n[nH]c(C(F)(F)F)c21 (centres unmarked) [Compound 819575] | IC50 [1, 7]: ≤ 100 nM; IC50 [2, 8]: ≤ 100 nM
100 to 1000 nM | 1000 to 5000 nM | CCC1(c2cccc(-c3cnn(C)c3)c2)C2=C(CC(C)(C)CC2=O)Nc2n[nH]cc21 (centres unmarked) [Compound 819576] | 
≤ 100 nM | 100 to 1000 nM | CCC1(c2cccc(-c3cnn(C)c3)c2)C2=C(CC(C)(C)CC2=O)Nc2n[nH]cc21 (centres unmarked) [Compound 819577] | IC50 [1, 7]: 100 to 1000 nM; IC50 [2, 8]: > 5000 nM
≤ 100 nM | 100 to 1000 nM | CCC1(c2cccc(-c3cnn(C)c3)c2)C2=C(CC(C)CC2=O)Nc2n[nH]cc21 (centres unmarked) [Compound 823721] | IC50 [1, 7]: 100 to 1000 nM; IC50 [2, 8]: > 5000 nM
100 to 1000 nM | > 5000 nM | CCC1(c2cccc(C(F)F)c2)C2=C(CC(C)(C)CC2=O)Nc2n[nH]cc21 (centres unmarked) [Compound 826716] | 
≤ 100 nM | ≤ 100 nM | CC[C@@]1(c2cccc(C(F)F)c2)C2=C(CC(C)(C)CC2=O)Nc2n[nH]cc21 [Compound 826717] | IC50 [1, 7]: 100 to 1000 nM; IC50 [2, 8]: 1000 to 5000 nM
100 to 1000 nM | 100 to 1000 nM | CC[C@]1(c2ccccc2)C2=C(CC(C)(C)[C@@H](F)C2=O)Nc2n[nH]cc21 [Compound 826766] | 
> 5000 nM | > 5000 nM | CC[C@]1(c2ccccc2)C2=C(CC(C)(C)[C@H](F)C2=O)Nc2n[nH]cc21 [Compound 826767] | 
≤ 100 nM | 100 to 1000 nM | CC[C@@]1(c2ccccc2)C2=C(CC(C)(C)[C@@H](F)C2=O)Nc2n[nH]cc21 [Compound 826768] | 
> 5000 nM | > 5000 nM | CC[C@@]1(c2ccccc2)C2=C(CC(C)(C)[C@H](F)C2=O)Nc2n[nH]cc21 [Compound 826769] | 

Further lines, the compound ahead of its results:

SMILES | IC50 [1, 3] | IC50 [2, 4] | further results
CC[C@]1(c2ccccc2)C2=C(C[C@@](C)(COC)CC2=O)Nc2n[nH]cc21 [Compound 816873] | 100 to 1000 nM | 1000 to 5000 nM | 
CC[C@]1(c2ccccc2)C2=C(C[C@]3(CCCOC3)CC2=O)Nc2n[nH]cc21 [Compound 816877] | > 5000 nM | > 5000 nM | 
CC[C@]1(c2ccccc2)C2=C(C[C@]3(CCOC3)CC2=O)Nc2n[nH]cc21 [Compound 816880] | > 5000 nM | > 5000 nM | 
CC[C@]1(c2ccccc2)C2=C(C[C@@]3(CCOC3)CC2=O)Nc2n[nH]cc21 [Compound 816881] | 100 to 1000 nM | 1000 to 5000 nM | 
CCC1(c2cccc(N3CCOCC3)c2)C2=C(CC(C)(C)CC2=O)Nc2n[nH]c(C(F)(F)F)c21 (centres unmarked) [Compound 816886] | 1000 to 5000 nM | 1000 to 5000 nM | 
CCC1(c2cccc(S(C)(=O)=O)c2)C2=C(CC(C)(C)CC2=O)Nc2n[nH]cc21 (centres unmarked) [Compound 819561] | ≤ 100 nM | ≤ 100 nM | 
CC1(C)CC(=O)C2=C(C1)Nc1n[nH]cc1C2(C)CCc1ccccc1 (centres unmarked) [Compound 819562] |  |  | IC50 [1, 5]: 1000 to 5000 nM; IC50 [2, 6]: > 5000 nM
CCC1(CCc2ccccc2)C2=C(CC(C)(C)CC2=O)Nc2n[nH]cc21 (centres unmarked) [Compound 819563] |  |  | IC50 [1, 5]: 1000 to 5000 nM; IC50 [2, 6]: > 5000 nM
CCC1(c2cccc(Br)c2)C2=C(CC(C(F)(F)F)CC2=O)Nc2n[nH]cc21 (centres unmarked) [Compound 819565] | 100 to 1000 nM | 100 to 1000 nM | 
CC[C@@]1(c2ccccc2)C2=C(C[C@](C)(C(F)(F)F)CC2=O)Nc2n[nH]cc21 [Compound 819568] | 100 to 1000 nM | 100 to 1000 nM | 
CC[C@]1(c2ccccc2)C2=C(C[C@](C)(C(F)(F)F)CC2=O)Nc2n[nH]cc21 [Compound 819569] | 100 to 1000 nM | 1000 to 5000 nM | 
CC[C@]1(c2ccccc2)C2=C(C[C@@](C)(C(F)(F)F)CC2=O)Nc2n[nH]cc21 [Compound 819570] | > 5000 nM | > 5000 nM | 
CC[C@@]1(c2ccccc2)C2=C(CC3(CCC3)CC2=O)Nc2n[nH]cc21 [Compound 819573] | ≤ 100 nM | 100 to 1000 nM | 
CC[C@]1(c2cccc(N3CCCC3)c2)C2=C(CC(C)(C)CC2=O)Nc2n[nH]c(C(F)(F)F)c21 [Compound 819574] | ≤ 100 nM | ≤ 100 nM | IC50 [1, 7]: ≤ 100 nM; IC50 [2, 8]: ≤ 100 nM
CCC1(c2cccc(C3CCOCC3)c2)C2=C(CC(C)(C)CC2=O)Nc2n[nH]cc21 (centres unmarked) [Compound 819638] | ≤ 100 nM | 100 to 1000 nM | IC50 [1, 7]: 100 to 1000 nM; IC50 [2, 8]: > 5000 nM
CCC1(c2cccc(C(F)(F)F)c2)C2=C(CC(C)(C)N(C)C2=O)Nc2n[nH]cc21 (centres unmarked) [Compound 823130] |  |  | IC50 [1, 9]: ≤ 100 nM; IC50 [2, 10]: 100 to 1000 nM
CCC1(c2cccc(-c3cnn(C)c3)c2)C2=C(CC(C)CC2=O)Nc2n[nH]cc21 (centres unmarked) [Compound 823720] | ≤ 100 nM | 100 to 1000 nM | 
CCC1(c2cccc(-c3cnn(C)c3)c2)C2=C(CC(C)CC2=O)Nc2n[nH]cc21 (centres unmarked) [Compound 823726] | > 5000 nM | > 5000 nM | 
CCC1(c2cccc(C(F)(F)F)c2)C2=C(CCN(C(C)C)C2=O)Nc2n[nH]cc21 (centres unmarked) [Compound 825755] |  |  | IC50 [1, 9]: ≤ 100 nM; IC50 [2, 10]: 100 to 1000 nM
CC1(C)CC(=O)C2=C(C1)Nc1n[nH]cc1C21CCOCC1 [Compound 826648, 7′,7′-dimethyl-2,2′,3,5,6,7′,8′,9′-octahydrospiro[pyran-4,4′-pyrazolo[3,4-b]quinolin]-5′ (6′H)-one] |  |  | IC50 [1, 11]: 100 to 1000 nM; IC50 [2, 12]: 100 to 1000 nM
CC(=O)N1CCC2(CC1)C1=C(CC(C)(C)CC1=O)Nc1n[nH]cc12 [Compound 826649] |  |  | IC50 [1, 11]: 100 to 1000 nM; IC50 [2, 12]: 1000 to 5000 nM
CC1(C)CC(=O)C2=C(C1)Nc1n[nH]cc1C21CCCCC1 [Compound 826650] |  |  | IC50 [1, 11]: ≤ 100 nM; IC50 [2, 12]: ≤ 100 nM
CC1(C)CC(=O)C2=C(C1)Nc1n[nH]cc1C21CCOC1 (centres unmarked) [Compound 826713] |  |  | IC50 [1, 11]: 100 to 1000 nM; IC50 [2, 12]: 100 to 1000 nM
CN1CCC2(CC1)C1=C(CC(C)(C)CC1=O)Nc1n[nH]cc12 [Compound 826714] |  |  | IC50 [1, 5]: > 5000 nM; IC50 [2, 6]: > 5000 nM
CCC1(c2cccc(Br)c2)C2=C(CC(C)CC2=O)Nc2n[nH]c(C(F)(F)F)c21 (centres unmarked) [Compound 826715] | ≤ 100 nM | ≤ 100 nM | 
CCC1(c2cccc(S(C)(=O)=O)c2)C2=C(CC(C)(C)CC2=O)Nc2n[nH]cc21 (centres unmarked) [Compound 826718] |  |  | IC50 [1, 7]: ≤ 100 nM; IC50 [2, 8]: 100 to 1000 nM
CC[C@]1(c2cccc(S(C)(=O)=O)c2)C2=C(CC(C)(C)CC2=O)Nc2n[nH]cc21 [Compound 826719] | 1000 to 5000 nM | > 5000 nM | 
CC(=O)N1CCC2(C1)C1=C(CC(C)(C)CC1=O)Nc1n[nH]cc12 (centres unmarked) [Compound 826763] |  |  | IC50 [1, 5]: 100 to 1000 nM; IC50 [2, 6]: 1000 to 5000 nM
CC1CCCC12C1=C(CC(C)(C)CC1=O)Nc1n[nH]cc12 (centres unmarked) [Compound 826765] |  |  | IC50 [1, 11]: 100 to 1000 nM; IC50 [2, 12]: 1000 to 5000 nM
CCC1(c2cccc(C(F)(F)F)c2)C2=C(CC(C)(C)N(C)C2=O)Nc2n[nH]cc21 (centres unmarked) [Compound 826790] |  |  | IC50 [1, 9]: ≤ 100 nM; IC50 [1, 7]: 100 to 1000 nM; IC50 [2, 10]: ≤ 100 nM; IC50 [2, 8]: 1000 to 5000 nM
